Source: patent US10548894B2, “Combination therapy” (Array BioPharma Inc., priority 2013, dated 2020)

Assays:
Assay in all cases: Microscopy imaging assay (viable nuclei count), 72 h
Format in all cases: cell-based
WM-266-4 cells = conditions: Homo sapiens, WM-266-4 parent, single agent
Procedure: (§1) Compound stocks are prepared in DMSO at a final concentration of 10 mM. Working stocks are serially diluted in the appropriate cell culture medium in 3-fold increments to achieve final assay concentrations ranging from 2.7 μM to 1.2 nM.
(§2) A-375 and WM-266-4 cells were purchased from American Type Culture Collection (ATCC). The A-375 cells were cultured in DMEM medium (ATCC) and the WM-266-4 cells were cultured in EMEM medium (ATCC) both supplemented with 10% fetal bovine serum (Gibco) and incubated at 37° C./5% CO2. The cell lines engineered to express commonly occurring alleles indicative of resistance were acquired from Novartis-Emeryville. These resistant models include, A-375 cells expressing mutant MEK1P124L, truncated p61-BRAFV600E, or mutant NRASQ61K, and WM-266-4 cells expressing mutant MEK1C121S, truncated p61-BRAFV600E, or mutant NRASQ61K. These cells were cultured in the appropriate parental medium with selection marker G418 and in the presence of 5 uM LFE158 (MEK mutants) or LIH720 (truncated p61-BRAFV600E).
(§3) For screening, cells were seeded in 80 ul of medium in 384-well plates (Thermo Scientific, cat#4332) at 500 (A-375) or 750 (WM-266-4) cell densities per well using a MultiDrop Combi (Thermo-Fisher) with an 8-channel standard cassette. To promote an even distribution of cells across the entire well, cells were briefly centrifuged at 1000 RPM and incubated at room temperature 30 minutes. All plates were incubated at 37° C., 5% CO2 for 24 h prior to compound addition. Compound stock was freshly prepared in the appropriate culture medium, and added using a PAA robot equipped with a 200n1 pin tool. In a minimum of three replicate wells, single agent and combination effects after 72 hours, were assessed by both quantification of cellular ATP levels via Cell Titer Glo (Promega) according to the manufacturer's protocol and by microscopy imaging. For imaging, cells were fixed to the plates and permeabilized with a solution of 10% PFA, 0.3% TX-100 in PBS via a WellMate dispenser with controlled dispensing speeds. Cell nuclei were stained with Hoechst 33342 (H3570, Invitrogen), and all necessary washing steps were performed by a BioTek washer.
(§4) An automated image analysis pipeline was established using custom-made scripts in the open-source, statistical programming language R, and functions of the BioConductor package EBImage. The goal was to quantify the number of viable nuclei (cells) per well as an approximation for cell viability. The pipeline was comprised of seven steps: (I.) smoothing of the image to reduce the number of intensity peaks, (II.) application of a thresholding function to separate the foreground (signal) from the background (noise), (III.) identification of local maxima in the foreground that serve as seeds for the nuclei, (IV.) filtering of local maxima in close proximity, (V.) propagation of the nuclei from remaining local maxima, (VI.) and extraction of object features from the propagated nuclei (numbers of nuclei, size features and intensity features). As a last step (VII.), to exclude debris (e.g. fragmented nuclei) from counting, objects identified in DMSO- and Staurosporin-treated wells were used to obtain feature distributions for viable and fragmented nuclei, respectively. These were used to set cut-offs differentiating between viable and fragmented nuclei. The number of fragmented nuclei was subtracted from the total number of identified objects and the result was reported as final count for that well.
(§5) Data comprised triplicate measurements for each treatment (compound) condition, 42 replicates of DMSO-treated wells, and duplicates of Staurosporin-treated wells. The data was normalized to the median of the DMSO measurements and summarized by calculating the median of the triplicates. Data was imported into Chalice to calculate compound synergies.

[1] = test system: WM-266-4 cells expressing mutant MEK1C121S; conditions: Homo sapiens, WM-266-4 MEK1C121S, single agent
Procedure: as §1, §2, §3, §4, §5

[2] = test system: A-375 cells expressing mutant NRASQ61K; conditions: Homo sapiens, A-375 NRASQ61K, single agent
Procedure: as §1, §2, §3, §4, §5

Work on `COC(=O)N[C@@H](C)CNc1nccc(-c2cn(C(C)C)nc2-c2cc(Cl)cc(NS(C)(=O)=O)c2F)n1` [Compound of Formula (I)] yielded an IC50 (WM-266-4 cells) of 3 nM, an IC50 [1] of 58 nM and an IC50 [2] of 133 nM.
